Results on one molecule are retold here after publication PMC5218480 (PLoS ONE, 2017).

This test has as its system MV-4-11 cells. Kind of test: Gene expression microarray analysis (Affymetrix PrimeView) and GSEA. It counts as cell-based, human. More on the design: RFU PODN (11730768_x_at) / Fold change /veh PODN (11730768_x_at) / RFU LINC00158 (11744669_a_at) / Fold change /veh LINC00158 (11744669_a_at) / RFU DUSP10 (11751237_a_at) / Fold change /veh DUSP10 (11751237_a_at) / RFU ID3 (11757404_x_at) / Fold change /veh ID3 (11757404_x_at) / RFU PLEKHG5 (11737974_s_at) / Fold change /veh PLEKHG5 (11737974_s_at) / RFU LRRC4B (11730491_at) / Fold change /veh LRRC4B (11730491_at) / RFU GIMAP4 (11747438_a_at) / Fold change /veh GIMAP4 (11747438_a_at) / RFU KRT8 (11758183_x_at) / Fold change /veh KRT8 (11758183_x_at) / RFU CNN1 (11734310_a_at) / Fold change /veh CNN1 (11734310_a_at) / RFU VPS37D (11726825_at) / Fold change /veh VPS37D (11726825_at) / RFU C10orf10 (11716522_x_at) / Fold change /veh C10orf10 (11716522_x_at) / RFU KIR2DL2 /// KIR2DL4 /// KIR2DL5A /// KIR2DL5B /// KIR2DS1 /// KIR2DS2 /// KIR2DS3 /// KIR2DS4 /// KIR3DL3 /// KIR3DL3 /// KIR3DS1 (11738374_at) / Fold change /veh KIR2DL2 /// KIR2DL4 /// KIR2DL5A /// KIR2DL5B /// KIR2DS1 /// KIR2DS2 /// KIR2DS3 /// KIR2DS4 /// KIR3DL3 /// KIR3DL3 /// KIR3DS1 (11738374_at) / RFU C1QL1 (11718748_at) / Fold change /veh C1QL1 (11718748_at) / RFU TMPRSS4 (11747572_a_at) / Fold change /veh TMPRSS4 (11747572_a_at) / RFU HAMP (11756126_x_at) / Fold change /veh HAMP (11756126_x_at) / RFU RNFT2 (11725882_a_at) / Fold change /veh RNFT2 (11725882_a_at) / RFU NR4A2 (11747474_a_at) / Fold change /veh NR4A2 (11747474_a_at) / RFU ABCC12 (11746883_a_at) / Fold change /veh ABCC12 (11746883_a_at) / RFU TMEM136 (11760407_x_at) / Fold change /veh TMEM136 (11760407_x_at) / RFU CLDN22 /// WWC2 (11732394_at) / Fold change /veh CLDN22 /// WWC2 (11732394_at) / RFU HLA-DPB1 (11760878_x_at) / Fold change /veh HLA-DPB1 (11760878_x_at) / RFU SPINT1 (11716480_a_at) / Fold change /veh SPINT1 (11716480_a_at) / RFU GAP43 (11754022_s_at) / Fold change /veh GAP43 (11754022_s_at) / RFU A4GNT (11735810_at) / Fold change /veh A4GNT (11735810_at) / RFU PRB3 (11715151_x_at) / Fold change /veh PRB3 (11715151_x_at) / RFU TUBB4B (11761932_at) / Fold change /veh TUBB4B (11761932_at) / RFU CAPN14 (11732068_a_at) / Fold change /veh CAPN14 (11732068_a_at) / RFU TMCC2 (11721928_a_at) / Fold change /veh TMCC2 (11721928_a_at) / RFU IRGQ (11745062_a_at) / Fold change /veh IRGQ (11745062_a_at) / RFU FAM174B (11720279_a_at) / Fold change /veh FAM174B (11720279_a_at) / RFU TMPRSS4 (11748680_a_at) / Fold change /veh TMPRSS4 (11748680_a_at) / RFU FAM212B (11763350_a_at) / Fold change /veh FAM212B (11763350_a_at) / RFU PLEKHG5 (11743358_a_at) / Fold change /veh PLEKHG5 (11743358_a_at) / RFU ZSCAN30 (11745921_a_at) / Fold change /veh ZSCAN30 (11745921_a_at) / RFU CMKLR1 (11741424_a_at) / Fold change /veh CMKLR1 (11741424_a_at) / RFU LOC101060620 /// MAPK8IP1 (11723275_at) / Fold change /veh LOC101060620 /// MAPK8IP1 (11723275_at) / RFU SPTSSB (11747773_x_at) / Fold change /veh SPTSSB (11747773_x_at) / RFU PRSS12 (11739890_at) / Fold change /veh PRSS12 (11739890_at) / RFU BIN1 (11741810_x_at) / Fold change /veh BIN1 (11741810_x_at) / RFU WNT11 (11732464_a_at) / Fold change /veh WNT11 (11732464_a_at) / RFU C10orf10 (11716521_a_at) / Fold change /veh C10orf10 (11716521_a_at) / RFU C5orf56 (11738089_at) / Fold change /veh C5orf56 (11738089_at) / RFU CYB561 (11721691_x_at) / Fold change /veh CYB561 (11721691_x_at) / RFU ANKRD19P (11752326_a_at) / Fold change /veh ANKRD19P (11752326_a_at) / RFU OR2T12 /// OR2T33 /// OR2T8 (11738714_s_at) / Fold change /veh OR2T12 /// OR2T33 /// OR2T8 (11738714_s_at) / RFU VCAN (11748164_a_at) / Fold change /veh VCAN (11748164_a_at) / RFU JSRP1 (11732532_at) / Fold change /veh JSRP1 (11732532_at) / RFU KRTAP10-11 (11738290_x_at) / Fold change /veh KRTAP10-11 (11738290_x_at) / RFU MYO3A (11730013_a_at) / Fold change /veh MYO3A (11730013_a_at) / RFU EBF3 (11725865_a_at) / Fold change /veh EBF3 (11725865_a_at) / RFU CAMK2N1 (11719241_x_at) / Fold change /veh CAMK2N1 (11719241_x_at) / RFU C5orf56 (11738088_a_at) / Fold change /veh C5orf56 (11738088_a_at) / RFU OLFML3 (11715873_a_at) / Fold change /veh OLFML3 (11715873_a_at) / RFU LOC100653217 /// NTM (11731650_a_at) / Fold change /veh LOC100653217 /// NTM (11731650_a_at) / RFU MAPK11 (11762145_a_at) / Fold change /veh MAPK11 (11762145_a_at) / RFU FIZ1 (11724087_x_at) / Fold change /veh FIZ1 (11724087_x_at) / RFU OASL (11726364_x_at) / Fold change /veh OASL (11726364_x_at) / RFU SOX15 (11748057_x_at) / Fold change /veh SOX15 (11748057_x_at) / RFU CD79A (11719716_a_at) / Fold change /veh CD79A (11719716_a_at) / RFU HIST1H1D (11736915_at) / Fold change /veh HIST1H1D (11736915_at) / RFU CASKIN2 (11723855_a_at) / Fold change /veh CASKIN2 (11723855_a_at) / RFU LOC730098 (11760151_x_at) / Fold change /veh LOC730098 (11760151_x_at) / RFU OR4N2 (11742367_at) / Fold change /veh OR4N2 (11742367_at) / RFU PRRT2 (11749266_a_at) / Fold change /veh PRRT2 (11749266_a_at) / RFU SNX32 (11753110_a_at) / Fold change /veh SNX32 (11753110_a_at) / RFU CDHR5 (11726645_a_at) / Fold change /veh CDHR5 (11726645_a_at) / RFU RCAN1 (11760418_a_at) / Fold change /veh RCAN1 (11760418_a_at) / RFU FAM167A (11723789_a_at) / Fold change /veh FAM167A (11723789_a_at) / RFU FAM26E (11764081_at) / Fold change /veh FAM26E (11764081_at) / RFU ISYNA1 (11749810_s_at) / Fold change /veh ISYNA1 (11749810_s_at) / RFU ACY1 (11761880_at) / Fold change /veh ACY1 (11761880_at) / RFU 11764098_at / Fold change /veh 11764098_at / RFU SAMD14 (11745864_x_at) / Fold change /veh SAMD14 (11745864_x_at) / RFU NPB (11741838_a_at) / Fold change /veh NPB (11741838_a_at) / RFU TMPRSS6 (11731388_a_at) / Fold change /veh TMPRSS6 (11731388_a_at) / RFU KRTAP10-2 (11738614_at) / Fold change /veh KRTAP10-2 (11738614_at) / RFU ARHGAP8 /// PRR5-ARHGAP8 (11727945_x_at) / Fold change /veh ARHGAP8 /// PRR5-ARHGAP8 (11727945_x_at) / RFU KRTAP5-7 /// NADSYN1 (11734609_at) / Fold change /veh KRTAP5-7 /// NADSYN1 (11734609_at) / RFU RASL12 (11751679_a_at) / Fold change /veh RASL12 (11751679_a_at) / RFU CDKN2B (11736163_a_at) / Fold change /veh CDKN2B (11736163_a_at) / RFU PRF1 (11729649_at) / Fold change /veh PRF1 (11729649_at) / RFU, ZNF638 /// ZNF638-IT1 / Fold change vs veh, ZNF638 /// ZNF638-IT1 / RFU, PANK3 / Fold change vs veh, PANK3 / RFU, SH3YL1 / Fold change vs veh, SH3YL1 / RFU, ZEB2 / Fold change vs veh, ZEB2 / RFU, NRIP1 / Fold change vs veh, NRIP1 / RFU, PTTG1IP / Fold change vs veh, PTTG1IP / RFU, CAPN2 / Fold change vs veh, CAPN2 / RFU, MED14 / Fold change vs veh, MED14 / RFU, SNORA58 / Fold change vs veh, SNORA58 / RFU, C1orf63 / Fold change vs veh, C1orf63 / RFU, LRRFIP1 / Fold change vs veh, LRRFIP1 / RFU, NDUFAF7 / Fold change vs veh, NDUFAF7 / RFU, SLC12A2 / Fold change vs veh, SLC12A2 / RFU, IBTK / Fold change vs veh, IBTK / RFU, ESF1 / Fold change vs veh, ESF1 / Fold change vs veh, TMEM50B / RFU, TAOK1 / Fold change vs veh, TAOK1 / RFU, ACBD3 / Fold change vs veh, ACBD3 / RFU, TMA16 / Fold change vs veh, TMA16 / RFU, RWDD3 / Fold change vs veh, RWDD3 / RFU, BCAT1 / Fold change vs veh, BCAT1 / RFU, EDEM3 / Fold change vs veh, EDEM3 / RFU, TMEM33 / Fold change vs veh, TMEM33 / RFU, WDR75 / Fold change vs veh, WDR75 / RFU, AHCTF1 / Fold change vs veh, AHCTF1 / RFU, TFRC / Fold change vs veh, TFRC / RFU, ZDHHC17 / Fold change vs veh, ZDHHC17 / RFU, NOM1 / Fold change vs veh, NOM1 / RFU, ARL8B / Fold change vs veh, ARL8B / RFU, ZBTB11 / Fold change vs veh, ZBTB11 / RFU, TAMM41 / Fold change vs veh, TAMM41 / RFU, KIAA1704 /// LOC100996395 / Fold change vs veh, KIAA1704 /// LOC100996395 / RFU, ING1 / Fold change vs veh, ING1 / RFU, TRMT61B / Fold change vs veh, TRMT61B / RFU, FUBP3 / Fold change vs veh, FUBP3 / RFU, TP53 / Fold change vs veh, TP53 / RFU, TNKS2 / Fold change vs veh, TNKS2 / RFU, ZFP14 / Fold change vs veh, ZFP14 / RFU, ACTR2 / Fold change vs veh, ACTR2 / RFU, PPP3R1 / Fold change vs veh, PPP3R1 / RFU, PIK3R1 / Fold change vs veh, PIK3R1 / RFU, HNRNPA1 / Fold change vs veh, HNRNPA1 / RFU, RNF170 / Fold change vs veh, RNF170 / RFU, ZNF28 / Fold change vs veh, ZNF28 / RFU, RNGTT / Fold change vs veh, RNGTT / RFU, OGT / Fold change vs veh, OGT / RFU, BRD1 / Fold change vs veh, BRD1 / RFU, MARS / Fold change vs veh, MARS / RFU, ZNF655 / Fold change vs veh, ZNF655 / RFU, FAHD1 / Fold change vs veh, FAHD1 / RFU, BDP1 / Fold change vs veh, BDP1 / RFU, LRRCC1 / Fold change vs veh, LRRCC1 / RFU, ARID1A / Fold change vs veh, ARID1A / RFU, ZNF146 / Fold change vs veh, ZNF146 / RFU, ZNF330 / Fold change vs veh, ZNF330 / RFU, GPN3 / Fold change vs veh, GPN3 / RFU, C9orf123 / Fold change vs veh, C9orf123 / RFU, N4BP2L2 / Fold change vs veh, N4BP2L2 / RFU, ARFIP1 / Fold change vs veh, ARFIP1 / RFU, FAM179B / Fold change vs veh, FAM179B / RFU, BCL10 / Fold change vs veh, BCL10 / RFU, UHRF1BP1L / Fold change vs veh, UHRF1BP1L / RFU, BET1 / Fold change vs veh, BET1 / RFU, CNOT2 / Fold change vs veh, CNOT2 / RFU, ZNF268 / Fold change vs veh, ZNF268 / Fold change vs veh, ZNF507 / RFU, DGCR2 / Fold change vs veh, DGCR2 / RFU, WDSUB1 / Fold change vs veh, WDSUB1 / Fold change vs veh, HSP90B1 /// MIR3652 / RFU, ADSS / Fold change vs veh, ADSS / RFU, GK / Fold change vs veh, GK / RFU, ZNF148 / Fold change vs veh, ZNF148 / RFU, TAF9 / Fold change vs veh, TAF9 / RFU, SLC1A5 / Fold change vs veh, SLC1A5 / RFU, SLMO2 / Fold change vs veh, SLMO2 / RFU, ABCC4 / Fold change vs veh, ABCC4 / RFU, LOC101060439 /// RAP1B / Fold change vs veh, LOC101060439 /// RAP1B / RFU, RFX7 / Fold change vs veh, RFX7 / RFU, GTPBP10 / Fold change vs veh, GTPBP10 / RFU, CNEP1R1 / Fold change vs veh, CNEP1R1 / RFU, BIVM-ERCC5 /// ERCC5 / Fold change vs veh, BIVM-ERCC5 /// ERCC5 / RFU, ILF3 / Fold change vs veh, ILF3 / RFU 11762660_at / Fold change /veh 11762660_at / RFU VCAN (11757783_s_at) / Fold change /veh VCAN (11757783_s_at) / RFU DDX43 (11728927_at) / Fold change /veh DDX43 (11728927_at) / RFU KRT8 (11758188_x_at) / Fold change /veh KRT8 (11758188_x_at) / RFU NKD1 (11759106_at) / Fold change /veh NKD1 (11759106_at) / RFU SRD5A1 (11742802_a_at) / Fold change /veh SRD5A1 (11742802_a_at) / RFU TPSAB1 /// TPSB2 (11721975_s_at) / Fold change /veh TPSAB1 /// TPSB2 (11721975_s_at) / RFU GSTM3 (11746129_a_at) / Fold change /veh GSTM3 (11746129_a_at) / RFU IL23R (11737362_x_at) / Fold change /veh IL23R (11737362_x_at) / RFU TMEM51 (11727254_a_at) / Fold change /veh TMEM51 (11727254_a_at) / RFU PIWIL2 (11732686_x_at) / Fold change /veh PIWIL2 (11732686_x_at) / RFU ORM1 (11744905_x_at) / Fold change /veh ORM1 (11744905_x_at) / RFU CCDC152 (11743942_at) / Fold change /veh CCDC152 (11743942_at) / RFU ECM1 (11717891_a_at) / Fold change /veh ECM1 (11717891_a_at) / RFU IL23R (11748794_a_at) / Fold change /veh IL23R (11748794_a_at) / RFU TNFAIP8L3 (11732012_x_at) / Fold change /veh TNFAIP8L3 (11732012_x_at) / RFU MBOAT4 (11741988_at) / Fold change /veh MBOAT4 (11741988_at) / RFU 11764193_at / Fold change /veh 11764193_at / RFU TMEM53 (11763286_at) / Fold change /veh TMEM53 (11763286_at) / RFU MAGEB2 (11727129_at) / Fold change /veh MAGEB2 (11727129_at) / RFU TMEM200A (11744735_a_at) / Fold change /veh TMEM200A (11744735_a_at) / RFU CCDC152 (11751479_a_at) / Fold change /veh CCDC152 (11751479_a_at) / RFU FAM211A (11726209_a_at) / Fold change /veh FAM211A (11726209_a_at) / RFU RGS16 (11746705_a_at) / Fold change /veh RGS16 (11746705_a_at) / RFU VCAN (11755009_s_at) / Fold change /veh VCAN (11755009_s_at) / RFU RHOB (11743442_s_at) / Fold change /veh RHOB (11743442_s_at) / RFU RGS16 (11720943_a_at) / Fold change /veh RGS16 (11720943_a_at) / RFU RGS16 (11720944_at) / Fold change /veh RGS16 (11720944_at) / RFU, VPS4B / Fold change vs veh, VPS4B / RFU, CREB1 / Fold change vs veh, CREB1 / RFU, DNAJC13 / Fold change vs veh, DNAJC13 / RFU, GNAQ / Fold change vs veh, GNAQ / RFU, CDK5R1 / Fold change vs veh, CDK5R1 / RFU, ZRANB3 / Fold change vs veh, ZRANB3 / RFU, CUL4A / Fold change vs veh, CUL4A / RFU, CCNY / Fold change vs veh, CCNY / RFU, UFL1 / Fold change vs veh, UFL1 / RFU, COG3 / Fold change vs veh, COG3 / RFU, DIAPH2 / Fold change vs veh, DIAPH2 / RFU, SKA2 / Fold change vs veh, SKA2 / RFU, AFF3 / Fold change vs veh, AFF3 / RFU, LMF1 / Fold change vs veh, LMF1 / RFU, IPO11 / Fold change vs veh, IPO11 / RFU, DFFB / Fold change vs veh, DFFB / RFU, FOXP1 / Fold change vs veh, FOXP1 / RFU, CARD8 / Fold change vs veh, CARD8 / RFU, STRN3 / Fold change vs veh, STRN3 / RFU, ADK / Fold change vs veh, ADK / RFU, RASSF2 / Fold change vs veh, RASSF2 / RFU, WIPF1 / Fold change vs veh, WIPF1 / RFU, LARP1B / Fold change vs veh, LARP1B / RFU, RASA1 / Fold change vs veh, RASA1 / RFU, RB1 / Fold change vs veh, RB1 / RFU, PPFIA1 / Fold change vs veh, PPFIA1 / RFU, MAT2A / Fold change vs veh, MAT2A / RFU, CCT5 / Fold change vs veh, CCT5 / RFU, WDR92 / Fold change vs veh, WDR92 / RFU, CUX1 / Fold change vs veh, CUX1 / RFU, TTC7A / Fold change vs veh, TTC7A / RFU, TMEM135 / Fold change vs veh, TMEM135 / RFU, DEPTOR / Fold change vs veh, DEPTOR / RFU, CPM / Fold change vs veh, CPM / RFU, DNAJB6 / Fold change vs veh, DNAJB6 / RFU, CACNA2D3 / Fold change vs veh, CACNA2D3 / RFU, DTX4 / Fold change vs veh, DTX4 / RFU, TFCP2 / Fold change vs veh, TFCP2 / RFU, GMCL1 /// GMCL1P1 / Fold change vs veh, GMCL1 /// GMCL1P1 / RFU, AEBP2 / Fold change vs veh, AEBP2 / RFU, SNHG1 /// SNORD22 /// SNORD25 /// SNORD26 /// SNORD27 /// SNORD28 /// SNORD29 /// SNORD31 / Fold change vs veh, SNHG1 /// SNORD22 /// SNORD25 /// SNORD26 /// SNORD27 /// SNORD28 /// SNORD29 /// SNORD31 / Fold change (Aza/veh), C12orf56 (ProbeSet 11735607_a_at) / Fold change (ACY-1035/veh), C12orf56 (ProbeSet 11735607_a_at) / Fold change (Aza/veh), FGFR1OP (ProbeSet 11751329_s_at) / Fold change (ACY-1035/veh), FGFR1OP (ProbeSet 11751329_s_at) / Fold change (Aza/veh), VPS36 (ProbeSet 11739960_a_at) / Fold change (ACY-1035/veh), VPS36 (ProbeSet 11739960_a_at) / RFU SYPL1 (11715823_x_at) / Fold change /veh SYPL1 (11715823_x_at) / RFU IGFBP7 (11715501_s_at) / Fold change /veh IGFBP7 (11715501_s_at) / RFU REEP3 (11722064_at) / Fold change /veh REEP3 (11722064_at) / RFU IGLL1 (11728026_x_at) / Fold change /veh IGLL1 (11728026_x_at): dose or concentration left out as unconfirmed. As to conditions: ProbeSet 11743580_s_at; LIST B.

Turning to `Nc1ccc(-c2cccs2)cc1NC(=O)c1ccc2c(c1)cc(C1CC1)n2CCN1CCOCC1` [ACY-1035], the “RFU, ACTR2” value stood at 854.57 RFU.
